Test results as given in patent publication US9278942B2, “Non-steroidal compounds as androgen receptor modulators” (FLX Discoveries Oy, priority 2011, dated 2016).
Like-named read-outs stand apart in the source and are kept apart here.

Columns and labels:
[1] = target: T1, human AR (Homo sapiens, UniProt P10275); test: Competitive AR binding assay against [3H]-R1881 in transiently transfected COS-1 cells; settings: compound 13.4 μM, [3H]-R1881 1.34 nM, complete inhibition equals 100%; for inhibition at 13.4 µM: read-out: Inhibition of [3H]-R1881 binding at 1.34 nM ± S.D.
T1 construct: expressed in transfected cells; host or cells: COS-1
T1 sequence (P10275 1-920): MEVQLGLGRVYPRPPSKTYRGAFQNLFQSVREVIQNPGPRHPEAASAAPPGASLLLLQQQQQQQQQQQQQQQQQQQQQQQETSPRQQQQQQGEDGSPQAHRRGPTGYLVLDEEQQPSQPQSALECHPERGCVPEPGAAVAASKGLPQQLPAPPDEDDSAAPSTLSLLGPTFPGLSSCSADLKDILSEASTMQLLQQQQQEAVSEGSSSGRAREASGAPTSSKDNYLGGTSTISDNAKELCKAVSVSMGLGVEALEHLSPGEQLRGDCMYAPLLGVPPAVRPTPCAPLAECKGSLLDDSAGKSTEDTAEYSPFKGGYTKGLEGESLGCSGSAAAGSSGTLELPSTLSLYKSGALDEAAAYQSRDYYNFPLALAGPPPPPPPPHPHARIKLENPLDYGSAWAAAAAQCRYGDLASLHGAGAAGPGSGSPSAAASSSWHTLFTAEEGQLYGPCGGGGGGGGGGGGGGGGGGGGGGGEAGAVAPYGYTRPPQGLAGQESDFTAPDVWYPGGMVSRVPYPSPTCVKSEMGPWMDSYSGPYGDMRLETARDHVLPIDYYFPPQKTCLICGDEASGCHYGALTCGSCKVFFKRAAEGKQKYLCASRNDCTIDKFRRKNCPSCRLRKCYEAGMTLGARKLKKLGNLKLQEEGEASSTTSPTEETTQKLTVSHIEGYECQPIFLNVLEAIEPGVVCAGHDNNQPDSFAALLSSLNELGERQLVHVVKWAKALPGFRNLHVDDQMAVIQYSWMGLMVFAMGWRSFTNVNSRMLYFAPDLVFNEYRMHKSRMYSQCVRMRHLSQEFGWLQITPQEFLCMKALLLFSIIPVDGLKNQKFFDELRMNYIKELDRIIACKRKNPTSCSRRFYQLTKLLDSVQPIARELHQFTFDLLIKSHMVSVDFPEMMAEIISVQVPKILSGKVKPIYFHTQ
How it was run: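 COS-1 cells transfected 24 h with human AR vector, then after 36 h exposed 2 h at 37° C to compound at 10000-fold molar excess over 1.34 nM [3H]-R1881. Cell-bound radioactivity counted in triplicate; result given as % inhibition of labelled R1881 binding.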

[2] = target: T1, human AR; test: AR antagonism assay: inhibition of transcriptional activation of AR (Probasin-luc reporter, COS-1 cells); assay type: cell-based; settings: compound 10.0 μM, relative luciferase response: 100% for testosterone (no antiandrogenic effect), 0% for complete antagonism; for remaining activity at 10 µM: COS-1, 18 h, read-out: AR antagonism against 100 nM testosterone ± S.D.
Procedure: Determination of the Antiandrogen Activity.
Testosterone was bought from Sigma Chemical Co. (St. Louis, Mo.) and hydroxyflutamide from Chemos GmbH. One day before transfection, COS-1 cells (from ATCC) were seeded into 1 ml of DMEM (Dulbecco's modified Eagle medium, Gibco) with 10% dextran-charcoal-treated fetal bovine serum and 0.25% (vol/vol) Penicillin-Streptomycin (Euroclone) at a density of 70×10^3 cells/well. After medium change to DMEM 2.5% FBS, the cells were transfected for 24 hours with 10 ng/well of human AR expression vector pSG5-hAR, 100 ng/well of reporter plasmid Probasin-luc, and 10 ng/well of control plasmid pCMV-β-gal by using the TransIT method (Micrus Bio TransIT LT1, Transfection Reagent). After the transfection, the cells received treatment of test compounds giving final concentration of 10 μM for each compound. In the antagonist test the wells were also treated with 100 nM final concentration of testosterone. After 18 hours, the cells were washed, lysed and assayed for luciferase and normalization for β-galactosidase activities and protein concentrations. The cells were washed with 100 μl of cold phosphate buffered saline (PBS) and lysed with 35 μl 1× Reporter lysis Buffer (Promega) and frozen (−70° C.) for 30 minutes. Cell lysates were placed in 1.5-ml propylene tubes and centrifuged at 13200×g for 5 minutes at room temperature. For β-galactosidase assay 10 μl of supernatant from each cell extract was transferred to a 96-well plate (96 well Elisa Microplates, PS, Microcon) and incubated for 10 minutes at 37° C. with 65 μl of reaction mixture consisting 0.76 μl 100×Mg-buffer, 12.5 μl ONPG (4 mg/ml), and 54.3 μl of sodium-phosphate buffer (pH 7). The reaction was stopped with treatment of 125 μl Na2CO3. For luciferase assay 10 μl of the supernatant was transferred to a 96-well plate (Greiner Microlon lumitrac 200) and treated with 30 μl of luciferase assay substrate solution (Promega Luciferase Assay System E1501). For the study of protein concentrations 5 μl of the supernatant was transferred to a 96-well plate (Elisa Microplates, PS, Microcon) and mixed with 200 μl of Bio-rad protein assay reagent. The luciferase activities were measured with Thermo Luminoscan Ascent scanner and the protein concentrations and β-galactosidase activities with Thermo Labsystem Multiscan Ex scanner. Also blank and control samples were measured. During the maintenance, transfection, and treatment with tested compounds the cells were incubated in humidified atmosphere with 5% carbon dioxide at 37° C.

Row | Compound | AR antagonism against 100 nM testosterone ± S.D. [2] [%] | inhibition at 13.4 µM ([1]; Table 2) [%] | remaining activity at 10 µM [2] [%] | further results
1 | Clc1ccc(C2=NOC3CCCCC23)cc1 (single isomer, unassigned) [Example 32a, 3-(4-Chloro-phenyl)-3a,4,5,6,7,7a-hexahydro-benzo[d]-isoxazole] | 40.9 ± 2.4 | – | – | Inhibition of [3H]-R1881 binding at 1.34 nM ± S.D. ([1]; Table 1): 30.5 ± 5.4%
2 | Clc1ccc(C2=NOC3CCCCC23)cc1 (single isomer, unassigned) [Example 32b, 3-(4-Chloro-phenyl)-3a,4,5,6,7,7a-hexahydro-benzo[d]-isoxazole] | 91.4 ± 7.7 | – | – | Inhibition of [3H]-R1881 binding at 1.34 nM ± S.D. ([1]; Table 1): 0%
3 | N#Cc1ccc(C2=NOC3CCCC23)cc1C(F)(F)F (single isomer, unassigned) [Example 85a, 4-(4,5,6,6a-Tetrahydro-3aH-cyclopenta[d]isoxazol-3-yl)-2-trifluoromethyl-benzonitrile] | 44.9 ± 3.6 | 87.6 ± 0.3 | – | –
4 | N#Cc1ccc(C2=NOC3CCCCCCC23)c(C(F)(F)F)c1 (single isomer, unassigned) [Example 93a, 4-(3a,4,5,6,7,8,9,9a-Octahydro-cycloocta[d]isoxazol-3-yl)-3-trifluoromethyl-benzonitrile] | 9.4 ± 0.3 | – | – | inhibition at 13.4 µM ([1]; Table 3): 87.2 ± 2.9%
5 | O=[N+]([O-])c1ccc(C2=NOC3CCCCC23)c(C(F)(F)F)c1 (single isomer, unassigned) [Example 38b, 3-(4-Nitro-2-trifluoromethyl-phenyl)-3a,4,5,6,7,7a-hexahydro-benzo-[d]-isoxazole] | 75.9 ± 3.7 | – | – | Inhibition of [3H]-R1881 binding at 1.34 nM ± S.D. ([1]; Table 1): 90.7 ± 0.5%
6 | Fc1ccc(C2=NOC3CCCCCCC23)cc1C(F)(F)F (stereo not drawn) [Example 43b, 3-(4-Fluoro-3-trifluoromethyl-phenyl)-3a,4,5,6,7,8,9,9a-octahydro-cycloocta[d]isoxazole] | 56.6 ± 1.4 | 76 ± 0.3 | – | –
7 | N#Cc1ccc(C2=NOC3CCCCC23)cc1C(F)(F)F (stereo not drawn) [Example 88ab, 4-(3a,4,5,6,7,7a-Hexahydro-benzo[d]isoxazol-3-yl)-2-trifluoromethyl benzonitrile] | 9.2 ± 1.7 | 99.2 ± 0.5 | – | –
8 | N#Cc1ccc(C2=NOC3CCCCC23)c(C(F)(F)F)c1 (stereo not drawn) [Example 89b, 4-(3a,4,5,6,7,7a-Hexahydro-benzo[d]isoxazol-3-yl)-3-trifluoromethyl benzonitrile] | 20.3 ± 1.7 | – | – | Inhibition of [3H]-R1881 binding at 1.34 nM ± S.D. ([1]; Table 2): 83.6 ± 0.9%
9 | N#Cc1ccc(C2=NOC3CCCCC23)c(C(F)(F)F)c1 (stereo not drawn) [Example 89a, 4-(3a,4,5,6,7,7a-Hexahydro-benzo[d]isoxazol-3-yl)-3-trifluoromethyl benzonitrile] | – | 78.8 ± 0.6 | 27.5 ± 4.1 | –
10 | N#Cc1ccc(C2=NOC3CCCCCC23)c(C(F)(F)F)c1 (stereo not drawn) [Example 91b, 4-(4,5,6,7,8,8a-Hexahydro-3aH-cyclohepta[d]isoxazol-3-yl)-3-trifluoromethyl benzonitrile] | 27.2 ± 4.8 | – | – | Inhibition of [3H]-R1881 binding at 1.34 nM ± S.D. ([1]; Table 2): 87.4 ± 2.7%
11 | O=[N+]([O-])c1ccc(C2=NOC3CCCC23)cc1C(F)(F)F (single isomer, unassigned) [Example 21a, 3-(4-Nitro-3-trifluoromethyl-phenyl)-4,5,6,6a-tetrahydro-3aH-cyclopenta[d]isoxazole] | – | – | 19.2 ± 6.8 | Inhibition of [3H]-R1881 binding at 1.34 nM ± S.D. ([1]; Table 3): 69.7 ± 4.5%
12 | O=[N+]([O-])c1ccc(C2=NOC3CCCCCCC23)cc1C(F)(F)F (stereo not drawn) [Example 45ab, 3-(4-Nitro-3-trifluoromethyl-phenyl)-3a,4,5,6,7,8,9,9a-octahydro-cycloocta[d]isoxazole] | – | – | 27.8 ± 1 | inhibition at 13.4 µM ([1]; Table 3): 85.7 ± 3.8%
13 | c1ccc2c(C3=NOC4CCCCC34)cccc2c1 (single isomer, unassigned) [Example 33a, 3-Naphthalen-1-yl-3a,4,5,6,7,7a-hexahydro-benzo[d]-isoxazole] | 40.2 ± 7.1 | – | – | inhibition at 13.4 µM ([1]; Table 1): 68.4 ± 1.9%
14 | O=[N+]([O-])c1ccc(C2=NOC3CCCCCC23)c(C(F)(F)F)c1 (stereo not drawn) [Example 42b, 3-(4-Nitro-2-trifluoromethyl-phenyl)-4,5,6,7,8,8a-hexahydro-3aH-cyclohepta[d]isoxazole] | 25.5 ± 1.5 | – | – | Inhibition of [3H]-R1881 binding at 1.34 nM ± S.D. ([1]; Table 2): 89.5 ± 2.0%; Inhibition of [3H]-R1881 binding at 1.34 nM ± S.D. ([1]; Table 3): 89.3 ± 4.8%
15 | Fc1ccc(C2=NOC3CCCCCC23)cc1C(F)(F)F (stereo not drawn) [Example 39ab, 3-(4-Fluoro-3-trifluoromethyl-phenyl)-4,5,6,7,8,8a-hexahydro-3aH-cyclohepta[d]isoxazole] | – | 55.7 ± 5.8 | 43.8 ± 2.4 | –
16 | N#Cc1ccc(C2=NOC3CCCC23)cc1C(F)(F)F (single isomer, unassigned) [Example 85b, 4-(4,5,6,6a-Tetrahydro-3aH-cyclopenta[d]isoxazol-3-yl)-2-trifluoromethyl-benzonitrile] | 18.9 ± 0.5 | – | – | Inhibition of [3H]-R1881 binding at 1.34 nM ± S.D. ([1]; Table 2): 91.8 ± 1.7%
17 | O=[N+]([O-])c1ccc(C2=NOC3CCCC23)cc1C(F)(F)F (single isomer, unassigned) [Example 21b, 3-(4-Nitro-3-trifluoromethyl-phenyl)-4,5,6,6a-tetrahydro-3aH-cyclopenta[d]isoxazole] | 22.9 ± 4.9 | – | – | Inhibition of [3H]-R1881 binding at 1.34 nM ± S.D. ([1]; Table 3): 90.9 ± 0.9%
18 | N#Cc1cccc(C2=NOC3CCCCCC23)c1C(F)(F)F (stereo not drawn) [Example 95a, 3-(4,5,6,7,8,8a-Hexahydro-3aH-cyclohepta[d]isoxazol-3-yl)-2-trifluoromethyl-benzonitrile] | – | – | 14.4 ± 1.9 | inhibition at 13.4 µM ([1]; Table 3): 96.2 ± 0.8%
19 | O=[N+]([O-])c1ccc(C2=NOC3CCCCCC23)cc1C(F)(F)F (stereo not drawn) [Example 41ab, 3-(4-Nitro-3-trifluoromethyl-phenyl)-4,5,6,7,8,8a-hexahydro-3aH-cyclohepta[d]isoxazole] | – | 97.8 ± 0.5 | 10.1 ± 0.9 | –
